This note sets out measurements from publication PMC7008132 (European journal of medicinal chemistry, 2019).

Data set [1] concerns HCT 116 cells. Put plainly: FITC-Annexin V/propidium iodide apoptosis analysis. The note with it: HCT 116 (p53-wild-type); 72 h; Annexin V/PI flow cytometry.
In data set [2] the test system is p53-wild-type SJSA-1 and U-2 OS cells. Conditions: 24 h treatment, nutlin-3a 5 μM positive control.
Data set [3] in a line: Stability of compound in solution. Format: physicochemical. The note with it: while in solution.
In data set [4] the target is human MDM2 (residues 1–118) (Homo sapiens, UniProt Q00987). Put plainly: Fluorescence polarization. The note with it: fluorescence polarization assay; qualitative statement. (In general: Fluorescence polarisation rises when a labelled molecule tumbles more slowly, as on binding a larger partner.)

On to `CC(C)(C)NC(=O)[C@H](c1c(C(=O)O)[nH]c2cc(Cl)ccc12)N(C=O)Cc1ccc(OCc2ccccc2Br)cc1` [(−)-6m], for which the Induction of apoptosis result in data set [1] is “induced apoptosis in p53-wild-type HCT 116 cells, comparable to nutlin-3a”.
`COc1ccc(C2=N[C@@H](c3ccc(Cl)cc3)[C@@H](c3ccc(Cl)cc3)N2C(=O)N2CCNC(=O)C2)c(OC(C)C)c1` [Nutlin-3a]: in data set [2], the “Induction of MDM2 and p21 expression” value was “potent induction of MDM2 and p21”.
As to `CC(C)(C)NC(=O)C(c1c(C(=O)O)[nH]c2cc(Cl)ccc12)N(C=O)Cc1ccc(NCc2ccc(Br)cc2)cc1` (stereo not shown) [compound 8, 3-(2-(tert-butylamino)-1-(N-(4-((4-bromobenzyl)amino)benzyl)formamido)-2-oxoethyl)-6-chloro-1H-indole-2-carboxylic acid], the Stability in solution result in data set [3] is recorded as “susceptible to degradation”.
For the compound `Cn1c(C(=O)O)c(C(C(=O)NC(C)(C)C)N(C=O)Cc2ccc(OCc3ccccc3Br)cc2)c2ccc(Cl)cc21` (stereo not shown) [compound 9, 3-(1-(N-(4-((2-bromobenzyl)oxy)benzyl)formamido)-2-(tert-butylamino)-2-oxoethyl)-6-chloro-1-methyl-1H-indole-2-carboxylic acid], in data set [4], the “MDM2 binding activity in words” value is reported as “total loss of activity”.
The same measure, in the same setting: the value for `CC(C)(C)NC(=O)C(c1ccc(Cl)cc1)N(C=O)Cc1ccc(OCc2ccc(Cl)c(Cl)c2)cc1` (stereo not shown) [compound 10, N-(tert-butyl)-2-(4-chlorophenyl)-2-(N-(4-((3,4-dichlorobenzyl)oxy)benzyl) formamido)acetamide] was “no binding”.
On the same count and under the same terms, as for `CC(C)(C)NC(=O)C(c1cccc(Cl)c1)N(C=O)Cc1ccc(Cl)cc1` (stereo not shown) [compound 11, N-(tert-butyl)-2-(N-(4-chlorobenzyl)formamido)-2-(3-chlorophenyl)acetamide], the entry is “no binding”; as for `O=CN(Cc1ccc(OCc2ccc(F)cc2)cc1)C(C(=O)NC12CC3CC(CC(C3)C1)C2)c1c(C(=O)O)[nH]c2cc(Cl)ccc12` (stereo not shown) [compound 17, 3-(2-((3s,5s,7s)-adamantan-1-ylamino)-1-(N-(4-((4-fluorobenzyl)oxy)benzyl)formamido)-2-oxoethyl)-6-chloro-1H-indole-2-carboxylic acid], “almost in loss of activity”.
